A short description of data set [1]: Solubility under the protocol conditions. Type of data set: physicochemical. Particulars: compounds dissolved in DMSO and diluted in medium. On the procedure: Among the 43 compounds tested derivatives 81, 96, 97, 100–104 were insoluble under the protocol conditions and, consequently, they were eliminated from further experiments.
Compounds were dissolved in dimethyl sulfoxide (DMSO, Sigma-Aldrich, St. Louis, MO, USA) to 125 mM. The final concentration of DMSO in the compounds dilutions was not higher than 1.00%. Drug, sulfadiazine [4-amino-N-(2-pyrimidinyl)benzenesulfonamide] (S8626, Sigma-Aldrich) was dissolved in 1M sodium hydroxide (NaOH, Sigma-Aldrich) to 400 mM. Final concertation of NaOH in sulfadiazine dilutions was not higher than 2.5%. Ready solution sulfadiazine and trimethoprim in weight ratio 5:1 (Sul-Tridin 24%, 200 mg/mL [800 mM] + 40 mg/mL [137.78 mM]– ScanVet Poland). Dilution of the all compounds and drugs were freshly prepared before the cells were exposed in appropriate medium.

Data set [2] in a line: Cytotoxic assay (MTT, ISO 10993-5:2009(E)), 24 h treatment. The format is cell-based. Particulars: L929 mouse fibroblast cells, L929 mouse fibroblasts, values above highest tested concentration extrapolated. On the procedure: The L929 mouse fibroblast (ATTC® CCL-1™, Manassas, VA, USA) were culturing according to the ATCC product sheet. […] The cell viability assay were performed precisely according to international standards (ISO 10993-5:2009(E)), using the tetrazolium salt [3-(4,5-dimethylthiazol-2-yl)-2,5-diphenyltetrazolium bromide] (MTT, Sigma-Aldrich) and mouse fibroblasts L929 cells. Cells (1 × 10^4 per well) were treated 24 h with compounds or drug in different concentration range. The optical density at 570 nm on the ELISA reader (Multiskan EX, Labsystems, Vienna, VA, USA), was read. The results were expressed as a percentage of viability compared to untreated cells. […] The CC30/CC50 represents the concentration of tested compounds or drugs that was required for 30% or 50% cells proliferation inhibition in vitro. According to the previously mentioned ISO 10993-5:2009(E) norm, the CC30 value is recognized as non-cytotoxic concentration for the cell line. All experiments were performed in triplicate.

Data set [3] has as its system T. gondii tachyzoites (RH strain). The data set is described as follows: In vitro anti-T. gondii activity, [3H]-uracil incorporation assay in infected Hs27 cells. The format is cell-based, Toxoplasma gondii. Particulars: for IC50: Toxoplasma gondii, T. gondii RH tachyzoites proliferation in Hs27 cells, na = not active in the tested concentration range; for SR (selectivity ratio): ratio of CC50 (L929) to IC50 (T. gondii).

Structures are written as SMILES.

The molecule `O=C(O)CC1SC(=NN=Cc2ccccc2O)N(c2ccc(Cl)cc2)C1=O` (centres unmarked) [Compound 81, [3-(4-Chlorophenyl)-2-{[(2-hydroxyphenyl)methylidene]hydrazinylidene}-4-oxo-1,3-thiazolidin-5-yl]acetic acid] registered a melting point of 234 to 236 °C. For the same molecule, in data set [1], the “solubility under the protocol conditions” value is “insoluble”.
`CCOc1cc(C=NN=C2SC(=CC(=O)OC)C(=O)N2c2ccccc2)ccc1O` [Compound 93, Methyl [2-{[(3-ethoxy-4-hydroxyphenyl)methylidene]hydrazinylidene}-4-oxo-3-phenyl-1,3-thiazolidin-5-ylidene]acetate] showed a melting point of 190 to 192 °C. Also, the CC50 at 24 h in data set [2] was 463 µM. Moreover, in data set [3], the IC50 worked out at 191 µM and the “SR (selectivity ratio)” value was found to be 2.42.
Consider `CCOc1cc(C=NN=C2SC(=CC(=O)OC)C(=O)N2c2ccccc2Cl)ccc1O` [Compound 96, Methyl [3-(2-chlorophenyl)-2-{[(3-ethoxy-4-hydroxyphenyl)methylidene]hydrazinylidene}-4-oxo-1,3-thiazolidin-5-ylidene]acetate], for which the melting point is 216 to 218 °C. For the same molecule, the “solubility under the protocol conditions” value in data set [1] is “insoluble”.
With `O=C(O)CC1SC(=NN=Cc2ccc(O)c(Cl)c2)N(c2ccc(Cl)cc2)C1=O` (centres unmarked) [Compound 86, [2-{[(3-Chloro-4-hydroxyphenyl)methylidene]hydrazinylidene}-3-(4-chlorophenyl)-4-oxo-1,3-thiazolidin-5-yl]acetic acid], the melting point fell in the range of 256 to 257 °C. Further, in data set [2], the CC50 at 24 h is at least 1000 µM. In addition, in data set [3], half-maximal inhibition (IC50) required 178 µM and the “SR (selectivity ratio)” value is reported as at least 5.63.
As for `COC(=O)C=C1SC(=NN=Cc2ccccc2O)N(c2ccc(Cl)cc2)C1=O` [Compound 97, Methyl [3-(4-chlorophenyl)-2-{[(2-hydroxyphenyl)methylidene]hydrazinylidene}-4-oxo-1,3-thiazolidin-5-ylidene]acetate], the melting point is 214 to 216 °C. The “solubility under the protocol conditions” value in data set [1] is “insoluble”.
In turn, `COC(=O)C=C1SC(=NN=Cc2ccc(O)c(OC)c2)N(c2ccccc2)C1=O` [Compound 92, Methyl [2-{[(4-hydroxy-3-methoxyphenyl)methylidene]hydrazinylidene}-4-oxo-3-phenyl-1,3-thiazolidin-5-ylidene]acetate] came in with a melting point of 210 to 212 °C. The CC50 at 24 h in data set [2] was 486 µM. Further, in data set [3], the IC50 was found to be 180 µM and the “SR (selectivity ratio)” value is listed as 2.69.
For the molecule `COC(=O)C=C1SC(=NN=Cc2ccc(O)c(Cl)c2)N(c2ccccc2)C1=O` [Compound 94, Methyl [2-{[(3-chloro-4-hydroxyphenyl)methylidene]hydrazinylidene}-4-oxo-3-phenyl-1,3-thiazolidin-5-ylidene]acetate], the melting point lay in the range of 238 to 240 °C. For the same molecule, the CC50 at 24 h in data set [2] is 474 µM. In data set [3], the midpoint of inhibition, the IC50, lay at 27.7 µM and the “SR (selectivity ratio)” value amounted to 17.07. Further, the “inhibition of proliferation, fold better than sulfadiazine + trimethoprim (5:1)” value in data set [3] (relative to sulfadiazine + trimethoprim (5:1)) came to 18 fold.
